For test [1], the system named is Staphylococcus aureus. In words: Synergistic antibacterial activity against methicillin-resistant Staphylococcus aureus assessed as fractional inhibitory concentration index in presence of cefoxitin. Type of test: functional.
For test [2], the system named is Staphylococcus aureus. In words: Antimicrobial activity against Staphylococcus aureus 29. The test is classed as functional.
The next test relates to Pseudomonas aeruginosa. In words: Antimicrobial activity against Pseudomonas aeruginosa. The test is classed as functional.
The subject of test [3] is DNA. In words: Binding affinity to methicillin-resistant Staphylococcus aureus DNA assessed as decrease in fluorescence by PI staining based analysis. The test is classed as nucleic-acid assay.
The subject of test [4] is Staphylococcus aureus. In words: Antibacterial activity against methicillin-resistant Staphylococcus aureus infected in cyclophosphamide-injected Kunming mouse model of skin wound infection assessed as reduction in bacterial load in skin at 4 mg/kg measured after 7 days. The following applies: time 7 day. Type of test: functional.
The subject of test [5] is DNA. Description: Binding affinity to methicillin-resistant Staphylococcus aureus DNA assessed as change in DNA conformation by UV absorption based analysis. The test is classed as nucleic-acid assay.
In test [6] the test system is Staphylococcus aureus. In words: Antibacterial activity against methicillin-resistant Staphylococcus aureus in presence of DNA. The test is classed as functional, organism-based.
For test [7], the system named is Cell membrane. Description: Disruption of cell membrane integrity in methicillin-resistant Staphylococcus aureus assessed as increase in PI fluorescence at 2 to 8 times of MIC by PI staining based fluorescence analysis. Type of test: subcellular.
The subject of test [8] is DNA. In words: Binding affinity to […] methicillin-resistant Staphylococcus aureus DNA assessed as inhibition of DNA migration by electrophoretic analysis. Type of test: nucleic-acid assay.
Test [9] deals with Cell membrane. In words: Disruption of cell membrane integrity in Candida albicans. Type of test: subcellular.
The subject of the next test is Mitochondrial membrane. Description: Induction of mitochondrial membrane depolarization in methicillin-resistant Staphylococcus aureus assessed as increase in fluorescence intensity at 1 to 8 times of MIC by DiSC3(5) staining based analysis. Type of test: cell membranes.
The subject of the next test is Enterococcus faecalis. In words: Antimicrobial activity against vancomycin resistant Enterococcus faecalis ATCC 51299. Type of test: functional.
Test [10] has as its system Staphylococcus aureus. In words: Antibacterial activity against methicillin-resistant Staphylococcus aureus infected in cyclophosphamide-injected Kunming mouse model of skin wound infection assessed as wound scabbing at 2 to 4 mg/kg measured after 2 days by photographic analysis. Type of test: functional, organism-based. The following applies: dose 2-4 mg/kg, time 2.0 day.

For test [11], the system named is Staphylococcus aureus. In words: Antibiofilm activity against methicillin-resistant Staphylococcus aureus assessed as decrease in biofilm biomass at 1 to 8 times of MIC by crystal violet staining based analysis. Type of test: functional, organism-based.

SMILES strings stand for the structures. ≈ marks a conversion by molar mass, not a printed value. Calls of active or inactive are those of the source. The rule behind the calls is not given here.

What is called MIC is the lowest concentration found to suppress growth. High values mean weaker potency, low ones greater potency.

For `CC(=O)O[C@H]1CC[C@]2(C)[C@H]3CC=C4[C@@H]5CC(C)(C)CC[C@]5(C(=O)NCCCNC(=N)N)CC[C@@]4(C)[C@]3(C)CC[C@H]2C1(C)C`, the outcome in the test with Staphylococcus aureus [1], in the test on DNA [5], in the test with Cell membrane [7], in the test on DNA [8], in the test with Cell membrane [9] and in the test on Staphylococcus aureus [10] was Active. Besides, in the test on Staphylococcus aureus [11], the outcome was Active. Besides, the MIC was 1 µg/mL (≈ 1.68 µM) in the test on Staphylococcus aureus [2], > 64 µg/mL in the test on Pseudomonas aeruginosa and 2 µg/mL (≈ 3.35 µM) in the test with Enterococcus faecalis. For the same compound, the Activity result in the test with DNA [3] is “Dose-Dependent Effect”; with Staphylococcus aureus [4] it was 1.94 log10CFU/mg; with Mitochondrial membrane, “Dose-Dependent Effect”. In addition, the outcome with Staphylococcus aureus [6] was inactive.

For the origin of these results see ChEMBL document CHEMBL6127107, “Oleanolic acid derivatives against drug-resistant bacteria and fungi by multi-targets to avoid drug resistance” (Eur J Med Chem, 2024).
